# Starred links: 1 amine or outer side, 2 acyl side, 3 side chain; linkers in the order of their positions; H or OH if unused. Positions of bridges follow the written chain, without caps; N, C: chain ends. Non-standard residues stand in square brackets, D forms with d. Residues, ends and D or L forms follow the SMILES beside them. Groups on a side chain read outwards from the residue. *: point of attachment. Trp(1-Me) = Cn1cc(C[C@H](N)C(=O)O)c2ccccc21; C18 diacid = O=C(O)CCCCCCCCCCCCCCCCC(=O)*; C16 diacid = O=C(O)CCCCCCCCCCCCCCC(=O)*; γGlu = O=C(O)[C@H](CCC(=O)[*:2])N[*:1]; AEEA = NCCOCCOCC(=O)O; Sar = CNCC(=O)O
# System: classical complement pathway
# Assay: In vitro haemolysis assay (inhibition of classical complement pathway)
# Type: cell-based, human
# Conditions: human serum, sensitized sheep red blood cells; Table 3, given as upper bounds; read-out: IC50, inhibition of hemolysis
# Method in brief: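 Compound dilutions preincubated 15 min at room temperature with diluted human serum (titrated per batch for 70-90% maximal haemolysis), then antibody-sensitized sheep RBC (10^7/well) added for 30 min at 37 °C in Tris/casein buffer, pH 7.4. Stopped with EDTA; haemolysis read at 405 nm; IC50 by 4PL fit.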
row,Structure (SMILES),IC50 [nM]
1,CC[C@H](C)[C@@H]1NC(=O)[C@@H](NC(=O)[C@H](Cc2ccccc2)NC(=O)[C@H](CCC(=O)O)NC(=O)[C@H](CO)NC(C)=O)CSSC[C@@H](C(=O)N(C)CC(=O)N[C@@H](CCC(=O)O)C(=O)N[C@@H](CCCCN)C(=O)N[C@@H](CCC(=O)NCC(=O)NCC(=O)NCC(=O)N[C@@H](CCCCNC(=O)CC[C@H](NC(=O)CNC(=O)CC[C@H](NC(=O)CCCCCCCCCCCCCCCCC(=O)O)C(=O)O)C(=O)O)C(N)=O)C(=O)O)NC(=O)[C@H](CCCNC(=N)N)NC(=O)[C@H](Cc2c[nH]cn2)NC(=O)[C@H](CCC(=O)O)NC(=O)CNC(=O)[C@H](Cc2c[nH]c3ccccc23)NC(=O)[C@H](CC(=O)O)NC(=O)[C@H](CCC(N)=O)NC(=O)[C@H](Cc2cn(C)c3ccccc23)NC1=O [Compound 132] (Ac-SEFCI[Trp(1-Me)]QDWGEHRC[Sar]EK[γGlu]GGGK([γGlu-Gly-γGlu-C18 diacid])-NH2; disulfide 4-14),< 100
2,CC[C@H](C)[C@H](NC(C)=O)C(=O)N[C@H]1CSSC[C@@H](C(=O)N[C@H](C(N)=O)[C@@H](C)O)NC(=O)[C@H](CO)NC(=O)[C@H](Cc2c[nH]cn2)NC(=O)[C@H](C)NC(=O)CNC(=O)[C@H](Cc2c[nH]c3ccccc23)NC(=O)[C@H](CC(=O)O)NC(=O)[C@H](CCC(N)=O)NC(=O)[C@H](Cc2c[nH]c3ccccc23)NC(=O)[C@H]([C@@H](C)CC)NC1=O [Compound 19] (Ac-ICIWQDWGAHSCT-NH2; disulfide 2-12),< 250
3,CC[C@H](C)[C@@H]1NC(=O)[C@@H](NC(=O)[C@H](Cc2ccccc2)NC(=O)[C@H](CCC(=O)O)NC(=O)[C@H](CO)NC(C)=O)CSSC[C@@H](C(=O)N(C)CC(=O)N[C@@H](CCC(=O)O)C(=O)NCC(=O)N[C@@H](CCC(=O)O)C(=O)NCCOCCOCC(=O)N[C@@H](CCCCNC(=O)CC[C@H](NC(=O)CNC(=O)CC[C@H](NC(=O)CCCCCCCCCCCCCCCCC(=O)O)C(=O)O)C(=O)O)C(N)=O)NC(=O)[C@H](CCCNC(=N)N)NC(=O)[C@H](Cc2c[nH]cn2)NC(=O)[C@H](CCC(=O)O)NC(=O)CNC(=O)[C@H](Cc2c[nH]c3ccccc23)NC(=O)[C@H](CC(=O)O)NC(=O)[C@H](CCC(N)=O)NC(=O)[C@H](Cc2cn(C)c3ccccc23)NC1=O [Compound 138] (Ac-SEFCI[Trp(1-Me)]QDWGEHRC[Sar]EGE[AEEA]K([γGlu-Gly-γGlu-C18 diacid])-NH2; disulfide 4-14),< 100
4,CC[C@H](C)[C@H](NC(=O)[C@H](C)NC(=O)[C@H](CO)NC(=O)CNC(=O)[C@H](CCC(=O)O)NC(C)=O)C(=O)N[C@H]1CSSC[C@@H](C(=O)N[C@H](C(N)=O)[C@@H](C)O)NC(=O)[C@H](CCCNC(=N)N)NC(=O)[C@H](Cc2c[nH]cn2)NC(=O)[C@H](CCC(=O)O)NC(=O)CNC(=O)[C@H](Cc2c[nH]c3ccccc23)NC(=O)[C@H](CC(=O)O)NC(=O)[C@H](CCC(N)=O)NC(=O)[C@H](Cc2c[nH]c3ccccc23)NC(=O)[C@H]([C@@H](C)CC)NC1=O [Compound 29] (Ac-EGSAICIWQDWGEHRCT-NH2; disulfide 6-16),< 100
5,CC[C@H](C)[C@H](NC(=O)CNC(=O)[C@H](CCCCN)NC(=O)[C@H](CCC(=O)O)NC(C)=O)C(=O)N[C@H]1CSSC[C@@H](C(=O)N[C@H](C(=O)N[C@@H](CCC(=O)O)C(=O)N[C@@H](CCCCN)C(=O)N2CCC[C@H]2C(N)=O)[C@@H](C)O)NC(=O)[C@H](CCCNC(=N)N)NC(=O)[C@H](Cc2c[nH]cn2)NC(=O)[C@H](CCC(=O)O)NC(=O)CNC(=O)[C@H](Cc2c[nH]c3ccccc23)NC(=O)[C@H](CC(=O)O)NC(=O)[C@H](CCC(N)=O)NC(=O)[C@H](Cc2c[nH]c3ccccc23)NC(=O)[C@H]([C@@H](C)CC)NC1=O [Compound 38] (Ac-EKGICIWQDWGEHRCTEKP-NH2; disulfide 5-15),< 250
6,CC[C@H](C)[C@@H]1NC(=O)[C@@H](NC(=O)[C@H](Cc2ccccc2)NC(=O)[C@H](CCC(=O)O)NC(=O)[C@H](CO)NC(C)=O)CSSC[C@@H](C(=O)N(C)CC(=O)N[C@@H](CCC(=O)O)C(=O)NCC(=O)N[C@@H](CCC(=O)O)C(=O)NCCOCCOCC(=O)NCCOCCOCC(=O)N[C@@H](CCCCNC(=O)CC[C@H](NC(=O)CNC(=O)CC[C@H](NC(=O)CCCCCCCCCCCCCCC(=O)O)C(=O)O)C(=O)O)C(N)=O)NC(=O)[C@H](CCCNC(=N)N)NC(=O)[C@H](Cc2c[nH]cn2)NC(=O)[C@H](CCC(=O)O)NC(=O)CNC(=O)[C@H](Cc2c[nH]c3ccccc23)NC(=O)[C@H](CC(=O)O)NC(=O)[C@H](CCC(N)=O)NC(=O)[C@H](Cc2cn(C)c3ccccc23)NC1=O [Compound 127] (Ac-SEFCI[Trp(1-Me)]QDWGEHRC[Sar]EGE[AEEA][AEEA]K([γGlu-Gly-γGlu-C16 diacid])-NH2; disulfide 4-14),< 100
7,CC[C@H](C)[C@@H]1NC(=O)[C@@H](NC(=O)CN(C)C(C)=O)CSSC[C@@H](C(=O)N[C@H](C(N)=O)[C@@H](C)O)NC(=O)[C@H](CCCNC(=N)N)NC(=O)[C@H](Cc2c[nH]cn2)NC(=O)[C@H](CCC(=O)O)NC(=O)CNC(=O)[C@H](Cc2c[nH]c3ccccc23)NC(=O)[C@H](CC(=O)O)NC(=O)[C@H](CCC(N)=O)NC(=O)[C@H](Cc2c[nH]c3ccccc23)NC1=O [Compound 11] (Ac-[Sar]CIWQDWGEHRCT-NH2; disulfide 2-12),< 100
8,CC[C@H](C)[C@@H]1NC(=O)[C@@H](NC(=O)[C@H](Cc2ccccc2)NC(=O)[C@H](CCC(=O)O)NC(=O)[C@H](CO)NC(C)=O)CSSC[C@@H](C(=O)N(C)CC(=O)N[C@@H](CCC(=O)O)C(=O)N[C@@H](C)C(N)=O)NC(=O)[C@H](CCCNC(=N)N)NC(=O)[C@H](Cc2c[nH]cn2)NC(=O)[C@H](CCC(=O)O)NC(=O)CNC(=O)[C@H](Cc2c[nH]c3ccccc23)NC(=O)[C@H](CCC(=O)O)NC(=O)[C@H](CCC(N)=O)NC(=O)[C@H](Cc2cn(C)c3ccccc23)NC1=O [Compound 83] (Ac-SEFCI[Trp(1-Me)]QEWGEHRC[Sar]EA-NH2; disulfide 4-14),< 100

# Same assay, conditions: human serum, sensitized sheep red blood cells; Table 4, valine 3 vs isoleucine 3 pairs; read-out: CP hemolysis IC50
row,Structure (SMILES),IC50 [nM]
1,"CC[C@H](C)[C@H](NC(C)=O)C(=O)N[C@H]1CSSC[C@@H](C(=O)N[C@H](C(N)=O)[C@@H](C)O)NC(=O)[C@H](CCCNC(=N)N)NC(=O)[C@H](Cc2c[nH]cn2)NC(=O)[C@H](CO)NC(=O)CNC(=O)[C@H](Cc2c[nH]c3ccccc23)NC(=O)[C@H](CC(=O)O)NC(=O)[C@H](CCC(N)=O)NC(=O)[C@H](Cc2c[nH]c3ccccc23)NC(=O)[C@H](C(C)C)NC1=O [B, reference compound] (Ac-ICVWQDWGSHRCT-NH2; disulfide 2-12)",360
2,CC[C@H](C)[C@H](NC(C)=O)C(=O)N[C@H]1CSSC[C@@H](C(=O)N[C@H](C(N)=O)[C@@H](C)O)NC(=O)[C@H](CO)NC(=O)[C@H](Cc2c[nH]cn2)NC(=O)[C@H](C)NC(=O)CNC(=O)[C@H](Cc2c[nH]c3ccccc23)NC(=O)[C@H](CC(=O)O)NC(=O)[C@H](CCC(N)=O)NC(=O)[C@H](Cc2c[nH]c3ccccc23)NC(=O)[C@H]([C@@H](C)CC)NC1=O [Compound 19] (Ac-ICIWQDWGAHSCT-NH2; disulfide 2-12),140
3,"CC[C@H](C)[C@H](NC(C)=O)C(=O)N[C@H]1CSSC[C@@H](C(=O)N[C@H](C(=O)NCC(=O)N[C@@H](C)C(=O)N[C@@H](CCC(=O)O)C(=O)N[C@@H](CO)C(N)=O)[C@@H](C)O)NC(=O)[C@H](CCCNC(=N)N)NC(=O)[C@H](Cc2c[nH]cn2)NC(=O)[C@H](CCC(=O)O)NC(=O)CNC(=O)[C@H](Cc2c[nH]c3ccccc23)NC(=O)[C@H](CC(=O)O)NC(=O)[C@H](CCC(N)=O)NC(=O)[C@H](Cc2c[nH]c3ccccc23)NC(=O)[C@H](C(C)C)NC1=O [D, reference compound] (Ac-ICVWQDWGEHRCTGAES-NH2; disulfide 2-12)",210
